Here are results for six molecules from patent publication US20230365541A1, “INHIBITOR OF ENHANCER OF ZESTE HOMOLOGUE 2, AND USE THEREOF” (HAISCO PHARMACEUTICALS PTE. LTD., priority 2020, published 2023).

A value given as a limit tells only on which side of the number the result lay.

One series relates to SU-DHL-6 cells. Description: SU-DHL-6 cell proliferation test. The class given is cell-based, human. As to conditions: incubated for 14 days. The protocol: SU-DHL-6 cells are human B-cell lymphoma cell lines purchased from ATCC and cultured under the following conditions: RPMI-1640+10% FBS+1% double antibody in a 37° C., 5% CO2 incubator. The cells were plated in a 12-well plate, with a cell concentration of 1×10^5 cells/mL. After the cells were plated, the compounds at different concentrations were added and cultured in a 37° C., 5% CO2 incubator. The cells were counted every 3-4 days (Countstar automated cell counter), centrifuged to remove the supernatant, re-diluted to 1×10^5 cells/mL and plated, and then the compounds at different concentrations were further added. After the mixture was incubated for 14 days and the cells were counted, the test was terminated, and the IC50 values were calculated by using the Origen9.2 software.

A further series has as its target EZH2 (Homo sapiens (Human), UniProt Q15910). Briefly: Test method for EZH2 enzyme activity. The settings on record: H3K27(21-44) and [3H]-SAM. The series is classed as biochemical. In a few lines: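 EZH2 (3 nM final) preincubated 15 min with compound in Tris-HCl pH 9.0 buffer, then H3K27(21-44) peptide and [3H]-SAM added (mixture at 200 nM and 100 nM) for 60 min at room temperature. Reaction quenched with cold SAM; flashplate scintillation read, inhibition normalized to controls and IC50 fitted.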

Series [1] can be described thus: Pharmacokinetic experiment in mice (single intragastric dose, 20 mg/kg). As to conditions: male, ICR, mouse, plasma, po.
Method: (§2) Experimental objective: a single dose of test compounds was administered to ICR mice intragastrically, and the concentrations of the test compounds in plasma of the mice were measured to evaluate pharmacokinetic characteristics of the test compounds in the mice.
(§3) Experimental animal: male ICR mice, about 20-25 g, 6-8 weeks old, 3 mice/compound, purchased from Chengdu Dossy Experimental Animals Co., Ltd.
(§4) Experimental method: on the day of the experiment, three ICR mice were randomly grouped according to their body weight. The animals were fasted with water available for 12 to 14 hours one day before the administration, and were fed 4 hours after the administration.
(§5) Before and after the administration, 0.03 mL of blood was taken from the orbit of the animals under isoflurane anesthesia, and placed in an EDTAK2 centrifuge tube. Centrifugation was carried out at 5000 rpm at 4° C. for 10 min, and the plasma was collected.
(§6) Time points for sample collection comprise 0 (before the administration), 15 min, 30 min, 1 h, 2 h, 4 h, 6 h, 8 h and 24 h.
(§7) Before analysis and detection, all samples were stored at −80° C.
The nature of series [2]: Pharmacokinetic experiment in mice (intravenous 5 mg/kg or intragastric 30 mg/kg). As to conditions: for AUC: read-out: AUC; for C0: read-out: C0; for bioavailability: PO 30 mg/kg vs IV 5 mg/kg; for Tmax: read-out: Tmax. The class given is in vivo. The protocol: The administration was performed according to table 5.
The concentrations of the compounds in EDTA-K2 anticoagulant plasma were determined by the LC-MS/MS method. The linear range of the standard curve of the compounds is 2-2000 ng/mL. After subjected to precipitating proteins with acetonitrile, the samples were analyzed by LC-MS/MS. The standard curve was subjected to a regression calculation using the weighted least square method (W=1/X^2), and quantified by calculating the ratio of test compound peak area to internal standard peak area.
• (1) except to the blank sample, 400 μL of internal standard working solution (Verapamil internal standard concentration in precipitant acetonitrile is 10.0 ng/mL) was added to a 1.5 mL centrifuge tube containing 30 μL of standard curve samples and quality control samples; • 200 μL of internal standard working solution (Verapamil internal standard concentration in precipitant acetonitrile is 10.0 ng/mL) was added to a 1.5 mL centrifuge tube containing 15 μL of unknown samples; • and 400 μL of acetonitrile was added to the blank sample; • (2) the mixture was mixed evenly for about 1 min in a vortex mixer; • (3) centrifugation was carried out at 10000 rpm at 4C for 10 mi; • (4) 175 μL of the supernatant was transferred to a new 96-well polypropylene plate, and then the plate was sealed and placed in a 10° C. sample tray for injection.

A short description of series [3]: Pharmacokinetic experiment in monkeys. The class given is in vivo. The settings on record: male, cynomolgus monkey, plasma. The protocol:
Experimental animal: twelve cynomolgus monkeys, 2.4-5.9 kg, male, 3-5.5 years old, purchased from Suzhou Xishan Zhongke Laboratory Animal Co., Ltd, with the production license number of SCXK(SU) 2018-0001.
Before and after the administration, 1.0 mL of blood was taken from the front and rear limb veins of the animals, and placed in an EDTAK2 centrifuge tube. […] Before analysis and detection, all plasma samples were stored at −80° C.

In another series the target is CYP1A2 (Homo sapiens (Human), UniProt P05177). Description: Cytochrome P450 isozyme inhibition experiment, CYP1A2. The series is classed as in vitro ADME. The settings on record: human liver microsomes. The protocol: (§1) Experimental objective: the inhibitory effects of test compounds on the activity of human liver microsomal cytochrome P450 isozymes (CYP1A2, CYP2C9, CYP2C19, CYP2D6 and CYP3A4) were determined. […]
For orientation: Liver microsomes are vesicles of endoplasmic reticulum, rich in cytochrome P450 enzymes.

The next series addresses CYP2C9 (Homo sapiens (Human), UniProt P11712). Briefly: Cytochrome P450 isozyme inhibition experiment, CYP2C9. The series is classed as in vitro ADME. As to conditions: human liver microsomes. The protocol:
as §1

Another series deals with CYP2C19 (Homo sapiens (Human), UniProt P33261). Briefly: Cytochrome P450 isozyme inhibition experiment, CYP2C19. The settings on record: human liver microsomes. The class given is in vitro ADME. The protocol:
as §1

The next series has as its target CYP2D6 (Homo sapiens (Human), UniProt P10635). Briefly: Cytochrome P450 isozyme inhibition experiment, CYP2D6. As to conditions: human liver microsomes. The series is classed as in vitro ADME. The protocol:
as §1

The target of another series is CYP3A4 (Homo sapiens (Human), UniProt P08684). Description: Cytochrome P450 isozyme inhibition experiment, CYP3A4. The class given is in vitro ADME. As to conditions: human liver microsomes, CYP3A4-M. The protocol:
as §1

For series [4] the following is noted: mouse, in vivo, po, 20 mg/kg.
Method: as §2, §3, §4, §5, §6, §7
The mark [5] stands for this setting: male, ICR, mouse, plasma, iv, 5 mg/kg, IV 5 mg/kg.
The mark [6] stands for this setting: male, ICR, mouse, plasma, po, 30 mg/kg, PO 30 mg/kg.
[7] abbreviates: male, ICR, mouse, plasma, po, 30 mg/kg.
[8] abbreviates: male, ICR, mouse, plasma, po, 30 mg/kg, PO 30 mg/kg, read-out: Cmax.

Sequence of EZH2 (Q15910 other isoform, or with tags, fused parts or gaps isoform Q15910-2): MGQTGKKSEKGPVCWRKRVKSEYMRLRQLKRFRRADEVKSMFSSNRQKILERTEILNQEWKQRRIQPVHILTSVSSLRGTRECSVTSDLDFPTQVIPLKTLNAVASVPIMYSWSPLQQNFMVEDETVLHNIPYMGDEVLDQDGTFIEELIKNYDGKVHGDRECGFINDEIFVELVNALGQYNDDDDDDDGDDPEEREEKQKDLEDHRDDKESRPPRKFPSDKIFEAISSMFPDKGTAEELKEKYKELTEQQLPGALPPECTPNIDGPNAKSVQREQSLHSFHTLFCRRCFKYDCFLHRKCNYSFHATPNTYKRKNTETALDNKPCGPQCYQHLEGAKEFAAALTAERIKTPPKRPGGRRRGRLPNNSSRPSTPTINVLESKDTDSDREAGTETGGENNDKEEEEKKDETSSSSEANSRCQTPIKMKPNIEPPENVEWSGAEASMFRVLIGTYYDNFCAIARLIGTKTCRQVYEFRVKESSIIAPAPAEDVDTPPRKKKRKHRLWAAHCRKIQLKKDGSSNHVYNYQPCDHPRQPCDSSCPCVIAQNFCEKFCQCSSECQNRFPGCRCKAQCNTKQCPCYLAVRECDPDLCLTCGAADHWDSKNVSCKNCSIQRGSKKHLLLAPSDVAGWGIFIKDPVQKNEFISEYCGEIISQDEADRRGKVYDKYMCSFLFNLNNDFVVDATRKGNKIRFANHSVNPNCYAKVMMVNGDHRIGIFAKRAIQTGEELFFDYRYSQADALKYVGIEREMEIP
Sequence of EZH2 (O75530 2-441 partner): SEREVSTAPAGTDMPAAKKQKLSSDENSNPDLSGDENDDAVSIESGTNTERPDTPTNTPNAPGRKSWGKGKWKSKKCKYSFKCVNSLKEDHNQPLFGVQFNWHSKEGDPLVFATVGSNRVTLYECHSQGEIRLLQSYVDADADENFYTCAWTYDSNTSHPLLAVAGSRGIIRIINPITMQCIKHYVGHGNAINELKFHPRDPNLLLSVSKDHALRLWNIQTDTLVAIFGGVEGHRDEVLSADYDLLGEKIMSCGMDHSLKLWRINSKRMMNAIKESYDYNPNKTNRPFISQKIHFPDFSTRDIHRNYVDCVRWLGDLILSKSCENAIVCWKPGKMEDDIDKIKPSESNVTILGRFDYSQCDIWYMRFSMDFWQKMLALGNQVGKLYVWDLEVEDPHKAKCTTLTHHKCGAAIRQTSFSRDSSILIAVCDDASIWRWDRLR
Sequence of EZH2 (Q15022 2-739 partner): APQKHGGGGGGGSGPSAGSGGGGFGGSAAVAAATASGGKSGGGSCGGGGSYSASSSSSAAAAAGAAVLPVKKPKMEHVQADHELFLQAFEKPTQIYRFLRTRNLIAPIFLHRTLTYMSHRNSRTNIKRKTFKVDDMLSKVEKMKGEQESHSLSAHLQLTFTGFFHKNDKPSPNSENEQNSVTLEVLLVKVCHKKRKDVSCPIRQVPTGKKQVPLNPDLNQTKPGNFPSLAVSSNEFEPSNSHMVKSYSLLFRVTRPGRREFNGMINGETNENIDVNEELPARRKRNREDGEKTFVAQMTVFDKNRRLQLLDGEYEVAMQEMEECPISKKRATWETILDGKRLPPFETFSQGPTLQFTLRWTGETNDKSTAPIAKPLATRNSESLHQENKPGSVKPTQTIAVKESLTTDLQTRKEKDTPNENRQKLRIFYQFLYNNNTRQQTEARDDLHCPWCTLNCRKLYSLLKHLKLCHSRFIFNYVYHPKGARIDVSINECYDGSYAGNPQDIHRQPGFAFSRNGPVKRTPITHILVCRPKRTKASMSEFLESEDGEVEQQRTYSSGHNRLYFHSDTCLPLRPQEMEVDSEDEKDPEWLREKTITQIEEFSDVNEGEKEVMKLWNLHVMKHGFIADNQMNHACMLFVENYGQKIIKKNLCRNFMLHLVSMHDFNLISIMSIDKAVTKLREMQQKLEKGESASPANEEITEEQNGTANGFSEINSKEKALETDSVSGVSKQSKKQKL
Sequence of EZH2 (Q09028 2-425 partner): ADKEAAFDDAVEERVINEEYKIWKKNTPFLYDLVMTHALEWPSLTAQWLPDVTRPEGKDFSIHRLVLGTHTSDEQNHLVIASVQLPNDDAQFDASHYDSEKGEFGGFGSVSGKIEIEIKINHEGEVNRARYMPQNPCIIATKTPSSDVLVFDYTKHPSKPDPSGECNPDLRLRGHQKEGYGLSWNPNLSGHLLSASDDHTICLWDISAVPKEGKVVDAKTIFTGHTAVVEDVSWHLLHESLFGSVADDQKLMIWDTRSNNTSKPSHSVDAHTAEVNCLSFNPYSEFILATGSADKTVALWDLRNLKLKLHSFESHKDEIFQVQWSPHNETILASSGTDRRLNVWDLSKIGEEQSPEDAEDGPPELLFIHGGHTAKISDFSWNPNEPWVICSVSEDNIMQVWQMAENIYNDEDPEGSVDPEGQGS
Sequence of EZH2 (Q6ZN18 whole entry partner): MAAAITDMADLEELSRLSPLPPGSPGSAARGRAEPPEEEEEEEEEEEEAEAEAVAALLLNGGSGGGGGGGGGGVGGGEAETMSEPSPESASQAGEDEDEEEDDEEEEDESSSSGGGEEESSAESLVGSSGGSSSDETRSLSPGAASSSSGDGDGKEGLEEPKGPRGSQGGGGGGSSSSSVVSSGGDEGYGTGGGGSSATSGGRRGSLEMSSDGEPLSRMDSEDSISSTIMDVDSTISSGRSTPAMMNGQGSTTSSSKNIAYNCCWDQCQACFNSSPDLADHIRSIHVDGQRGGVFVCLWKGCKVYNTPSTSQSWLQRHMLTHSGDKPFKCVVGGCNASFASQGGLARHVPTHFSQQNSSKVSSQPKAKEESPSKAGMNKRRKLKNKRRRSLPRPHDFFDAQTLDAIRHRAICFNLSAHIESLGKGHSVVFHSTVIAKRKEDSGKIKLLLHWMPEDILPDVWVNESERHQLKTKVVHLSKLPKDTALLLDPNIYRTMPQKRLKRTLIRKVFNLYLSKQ
Sequence of CYP2C9 (P11712 whole entry): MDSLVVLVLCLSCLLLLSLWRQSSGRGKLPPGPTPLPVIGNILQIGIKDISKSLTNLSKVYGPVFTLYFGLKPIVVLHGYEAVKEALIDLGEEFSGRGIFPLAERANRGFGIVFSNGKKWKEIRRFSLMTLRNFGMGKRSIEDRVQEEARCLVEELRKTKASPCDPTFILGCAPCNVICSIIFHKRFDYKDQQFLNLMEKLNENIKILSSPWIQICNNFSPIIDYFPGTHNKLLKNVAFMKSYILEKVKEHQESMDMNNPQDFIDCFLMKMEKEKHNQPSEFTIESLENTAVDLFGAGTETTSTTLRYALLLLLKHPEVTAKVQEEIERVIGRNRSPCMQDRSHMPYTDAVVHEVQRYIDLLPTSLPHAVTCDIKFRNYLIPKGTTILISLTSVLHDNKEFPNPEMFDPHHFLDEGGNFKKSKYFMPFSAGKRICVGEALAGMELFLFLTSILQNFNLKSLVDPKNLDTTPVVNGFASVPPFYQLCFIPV
Sequence of CYP2D6 (P10635 whole entry): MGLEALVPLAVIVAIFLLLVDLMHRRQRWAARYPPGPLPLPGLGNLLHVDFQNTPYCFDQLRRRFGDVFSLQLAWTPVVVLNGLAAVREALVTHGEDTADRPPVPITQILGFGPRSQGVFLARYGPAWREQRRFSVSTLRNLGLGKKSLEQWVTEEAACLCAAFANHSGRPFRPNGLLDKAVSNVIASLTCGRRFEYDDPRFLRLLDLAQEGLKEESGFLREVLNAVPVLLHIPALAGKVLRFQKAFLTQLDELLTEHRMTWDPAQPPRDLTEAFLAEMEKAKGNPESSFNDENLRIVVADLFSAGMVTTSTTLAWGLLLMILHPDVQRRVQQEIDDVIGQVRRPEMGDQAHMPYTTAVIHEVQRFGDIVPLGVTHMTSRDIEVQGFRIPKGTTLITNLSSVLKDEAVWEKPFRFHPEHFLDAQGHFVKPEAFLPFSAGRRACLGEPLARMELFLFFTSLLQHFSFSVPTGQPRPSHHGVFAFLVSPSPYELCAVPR
Sequence of CYP3A4 (P08684 whole entry): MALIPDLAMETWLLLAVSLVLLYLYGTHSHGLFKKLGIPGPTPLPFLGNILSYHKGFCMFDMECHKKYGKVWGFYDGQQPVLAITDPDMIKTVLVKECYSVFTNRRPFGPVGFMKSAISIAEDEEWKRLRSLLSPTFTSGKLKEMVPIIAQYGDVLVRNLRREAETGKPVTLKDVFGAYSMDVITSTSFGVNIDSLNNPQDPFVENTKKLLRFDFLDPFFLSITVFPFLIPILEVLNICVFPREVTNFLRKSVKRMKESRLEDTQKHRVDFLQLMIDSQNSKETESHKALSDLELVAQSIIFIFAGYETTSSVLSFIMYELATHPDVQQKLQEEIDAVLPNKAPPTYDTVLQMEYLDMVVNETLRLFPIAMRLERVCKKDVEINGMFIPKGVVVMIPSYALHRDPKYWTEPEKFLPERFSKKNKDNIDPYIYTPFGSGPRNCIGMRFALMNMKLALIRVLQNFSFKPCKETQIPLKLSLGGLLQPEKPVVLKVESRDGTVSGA
Sequence of CYP2C19 (P33261 whole entry): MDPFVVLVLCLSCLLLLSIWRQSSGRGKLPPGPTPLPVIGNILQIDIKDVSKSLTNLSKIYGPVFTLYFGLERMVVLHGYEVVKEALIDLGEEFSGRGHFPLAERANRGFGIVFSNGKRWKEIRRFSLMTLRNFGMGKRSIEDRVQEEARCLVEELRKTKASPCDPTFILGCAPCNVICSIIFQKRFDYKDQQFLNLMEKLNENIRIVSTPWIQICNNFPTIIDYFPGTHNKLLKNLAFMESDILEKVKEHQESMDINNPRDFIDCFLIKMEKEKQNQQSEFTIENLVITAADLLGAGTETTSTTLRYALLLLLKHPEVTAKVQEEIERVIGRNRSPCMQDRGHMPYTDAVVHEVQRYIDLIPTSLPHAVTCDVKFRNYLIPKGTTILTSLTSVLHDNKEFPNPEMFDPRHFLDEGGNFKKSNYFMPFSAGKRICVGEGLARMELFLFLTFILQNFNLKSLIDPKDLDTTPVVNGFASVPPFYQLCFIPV

The term IC50 denotes the concentration that inhibits the measured activity by half. Broadly, the AUC is the area under the concentration-time curve, a measure of exposure. By Cmax is commonly meant the maximum level reached in the sampled fluid or tissue. In general, half-life refers to the time needed for the level to fall by half in the phase considered. A lower half-life goes with fast loss. In turn, `CSc1cc(C)[nH]c(=O)c1CNC(=O)c1cc(Cl)c2c(c1C)OC(C)([C@H]1CC[C@@H](N[C@H]3C[C@H](F)C3)CC1)O2` (single isomer, unassigned) [Compound 34, isomer 1, 7-chloro-2-(4-((trans-3-fluorocyclobutyl)amino)cyclohexyl)-2,4-dimethyl-N-((6-methyl-4-(methylthio)-2-oxo-1,2-dihydropyridin-3-yl)methyl)benzo[d][1,3]dioxole-5-carboxamide] gave an IC50 with SU-DHL-6 cells (Homo sapiens, SU-DHL-6, 336 h) of 33 nM. On EZH2, this molecule registered an IC50 of 0.57 nM. In series [1], this molecule showed an AUC of 1350 ng·h/mL, a Cmax of 598 ng/mL and a half-life of 3.37 h.
As a reminder, the bioavailability is dose-corrected exposure relative to a reference, in per cent. `[2H]C([2H])(NC(=O)c1cc(Cl)c2c(c1C)OC(C)([C@H]1CC[C@@H](NC3CC(F)(F)C3)CC1)O2)c1c(SC)cc(C)[nH]c1=O` (single isomer, unassigned) [Compound 44, isomer 1, 7-chloro-2-(4-((3,3-difluorocyclobutyl)amino)cyclohexyl)-2,4-dimethyl-N-((6-methyl-4-(methylthio)-2-oxo-1,2-dihydropyridin-3-yl)methyl-d2)benzo[d][1,3]dioxole-5-carboxamide] registered an IC50 in the series on SU-DHL-6 cells (Homo sapiens, SU-DHL-6, 336 h) of 24 nM. The molecule further came in with an IC50 against EZH2 of 0.48 nM. For the same molecule, the T1/2 in [2] (ICR mice, IV 5 mg/kg, listed as Compound 44, Isomer 1) was 0.427 h. In series [2] (ICR mice, PO 30 mg/kg, listed as Compound 44, Isomer 1), this molecule showed a Cmax of 971 ng/mL. Further, in series [2] (setting [5]), the AUC was 574 ng·h/mL and the C0 was found to be 2340 ng/mL. Besides, in series [2] (setting [6]), the half-life is 1.27 h and the AUC worked out at 1530 ng·h/mL. Moreover, the bioavailability in series [2] (setting [7]) turned out to be 44.3%.
What is called Tmax is the time at which the peak concentration occurs. As for `[2H]C([2H])(NC(=O)c1cc(Cl)c2c(c1C)OC(C)(C1CCC(NC3COC3)CC1)O2)c1c(SC)cc(C)[nH]c1=O` (single isomer, unassigned) [Compound 59, isomer 2, 7-chloro-2,4-dimethyl-N-((6-methyl-4-(methylthio)-2-oxo-1,2-dihydropyridin-3-yl)methyl-d2)-2-(4-(oxetan-3-ylamino)cyclohexyl)benzo[d][1,3]dioxole-5-carboxamide], the IC50 was 6.35 nM in the series with SU-DHL-6 cells; 0.44 nM on EZH2; above 50000 nM at CYP1A2; above 50000 nM against CYP2C9; above 50000 nM on CYP2C19; above 50000 nM at CYP2D6. This molecule also gave an IC50 against CYP3A4 above 50000 nM. The AUC in [3] (IV 3 mg/kg) was found to be 1570 ± 39 ng·h/mL; in series [3] (PO 15 mg/kg), 3310 ± 526 ng·h/mL. Further, the C0 in [3] (IV 3 mg/kg) is 2960 ± 601 ng/mL. Further, the half-life in series [3] (IV 3 mg/kg) was 2.68 ± 0.14 h; in series [3] (PO 15 mg/kg), 5.11 ± 0.32 h. In series [3] (PO 15 mg/kg), this molecule had a Cmax of 2320 ± 562 ng/mL. In addition, in [3] (PO 15 mg/kg), the Tmax came to 1 h. For the same molecule, the bioavailability in [3] (PO 15 mg/kg vs IV 3 mg/kg) turned out to be 42.1 ± 6.7%.
As for `CSc1cc(C)[nH]c(=O)c1CNC(=O)c1cc(Cl)c2c(c1C)OC(C)(C1CCN(CC3CC(F)(F)C3)CC1)O2` (single isomer, unassigned; isomer 1) [Compound 10, isomer 1, 7-chloro-2-(1-((3,3-difluorocyclobutyl)methyl)piperidin-4-yl)-2,4-dimethyl-N-((6-methyl-4-(methylthio)-2-oxo-1,2-dihydropyridin-3-yl)methyl)benzo[d][1,3]dioxole-5-carboxamide], in series [4], the Conclusion on pharmacokinetics result is “Conclusion: the compounds of the present disclosure, especially isomer 1 of compound 10 and isomer 1 of compound 34, have good pharmacokinetics with long half-life and short time to reach the highest concentration”; the “Curve area AUC” value stood at 1097 h · ng · mL − 1; the “Half-life T1/2” value came out at 1.72 h; the “Plasma drug concentration Cmax” value was found to be 1238 ng/mL. Further, the “Time to reach peak Tmax” value in [4] was 0.25.
As to `[2H]C([2H])(NC(=O)c1cc(Cl)c2c(c1C)OC(C)(C1CCN(CC3CC3)CC1)O2)c1c(SC)cc(C)[nH]c1=O` (stereo not drawn) [Compound 27, 7-chloro-2-(1-(cyclopropylmethyl)piperidin-4-yl)-2,4-dimethyl-N-((6-methyl-4-(methylthio)-2-oxo-1,2-dihydropyridin-3-yl)methyl-d2)benzo[d][1,3]dioxole-5-carboxamide], the IC50 in the series with SU-DHL-6 cells (Homo sapiens, SU-DHL-6, 336 h) was determined as 93.7 nM. On EZH2, this molecule showed an IC50 of 0.52 nM. Moreover, in series [2] (setting [5]), the half-life was 1.42 h, the AUC was determined as 839 ng·h/mL and the C0 turned out to be 1970 ng/mL. In series [2] (setting [6]), the half-life was 0.934 h, the AUC came out at 2650 ng·h/mL and the Tmax worked out at 2 h. This molecule yielded a bioavailability in series [2] (setting [7]) of 52.7%. Besides, the Cmax in series [2] (setting [8]) was 865 ng/mL.
Take `Cc1cc(C)c(CNC(=O)c2cc(Cl)c3c(c2C)O[C@@](C)([C@H]2CC[C@H](N(C)C)CC2)O3)c(=O)[nH]1` [Compound I-2, Valemetostat, reference compound]: the values for the half-life in [2] (setting [5]) and in series [2] (setting [6]) were 6.31 h and 3.05 h, respectively. In addition, the AUC came to 1180 ng·h/mL in series [2] (setting [5]) and 645 ng·h/mL in [2] (setting [6]). Also, the C0 in series [2] (setting [5]) came to 2140 ng/mL. Besides, the bioavailability in series [2] (setting [7]) amounted to 9.08%. Besides, the Cmax in series [2] (setting [8]) worked out at 262 ng/mL. In addition, in series [2] (setting [6]), the Tmax stood at 0.25 h. Besides, the IC50 against CYP1A2 is above 50000 nM; at CYP2C9, above 50000 nM; against CYP2C19 it was above 50000 nM; against CYP2D6, above 50000 nM; on CYP3A4 it was 16300 nM.
